Counter-ions that a name gives are not always drawn.
How the values were obtained:
human tumor cell lines = experiment: Inhibition of human tumor cell growth in culture (XTT-tetrazolium cytotoxicity assay, 72 h); type: cell-based; conditions: five human tumor cell lines, 72 h incubation; for IC50 values compared with tested known 9-anilinoacridine antitumor compounds: for at least one cell line
Method: (§1) Cytotoxicity Assays. The effects of the compounds on cell growth were determined in all human tumor cells (i.e. colon HT-29, nasopharyngeal carcinoma HONE-1 and BM-1, hepatoma Hepa-G2, breast carcinoma MX-1, gastric carcinoma TSGH, brain tumor DBTRG, oral carcinoma KB, breast carcinoma MCF-7 and MX-1, and T-cell acute lymphocytic leukemia CCRF-CEM), in a 72 h incubation, by XTT-tetrazolium assay, as described by Scudiero et al. (Cancer Res. 1988, 48, 4827-4833). After the addition of phenazine methosulfate-XTT solution at 37° C. for 6 h, absorbance at 450 and 630 nm was detected on a microplate reader (EL 340; Bio-Tek Instruments Inc., Winooski, Vt.). Six to seven concentrations of each compound were used. The IC50 and dose-effect relationships of the compounds for antitumor activity were calculated by a median-effect plot (Chou et al. Adv. Enzyme Regul. 1984, 22, 27-55) using a computer program on an IBM-PC workstation (Chou et al. Dose-Effect Analysis with Microcomputers: Quantitation of ED50, LD50, Synergism, Antagonism, Low-Dose Risk, Receptor-Ligands Binding and Enzyme Kinetics; Biosoft: Cambridge, U.K., 1987).

[1] = test system: CCRF-CEM human lymphoblastic leukemic cells and its drug-resistant sublines; experiment: Growth inhibition of CCRF-CEM cells and drug-resistant sublines (XTT-tetrazolium assay, 72 h); type: cell-based; conditions: for IC50 values compared with tested known 9-anilinoacridine compounds: CCRF-CEM and drug-resistant sublines, 72 h, as the trihydrochloride salt or free amine compounds; for cross-resistance with vinblastine or taxol: CCRF-CEM drug-resistant sublines
Method: as §1, with “in CCRF-CEM” for “in all”, “human lymphoblastic leukemic” for “human tumor”, “cells” for “cells (i.e. colon HT-29, nasopharyngeal carcinoma HONE-1”, “and its drug-resistant sublines” for “and BM-1, hepatoma Hepa-G2, breast carcinoma MX-1, gastric carcinoma TSGH, brain tumor DBTRG, oral carcinoma KB, breast carcinoma MCF-7 and MX-1, and T-cell acute lymphocytic leukemia CCRF-CEM),”

[2] = test system: human breast tumor MX-1 xenograft; experiment: Chemotherapeutic efficacy in nude mice bearing human breast tumor MX-1 xenograft; type: in vivo; conditions: i.v., dosages of 10 mg/Kg or higher
Method: In vivo assay. Athymic nude mice bearing the nu/nu gene were used for human breast tumor MX-1 xenograft. Outbred Swiss-background mice were obtained from Charies River Breeding Laboratories. Male mice 8 weeks old or older weighing 22 g or more were used for most experiments. Drug was administrated via the tail vein by i.v. injection. Tumor volumes were assessed by measuring length x width x height (or width) by using caliper. Vehicle used was 20 μl DMSO in 180 μl saline. All animal studies were conducted in accordance with the guidelines of the National Institutes of Health Guide for the Care and Use of Animals and the protocol approved by the Memorial Sloan-Kettering Cancer Center's Institutional Animal Care and Use Committee.

**Q.** With “{3-[4-(2-dimethylamino ethylcarbamoyl)-5-methyl-acridin-9-ylamino]-2-methyl-phenyl}-carbamic acid ethyl ester [Compound 5]” as the molecule, how does the “IC50 values compared with tested known 9-anilinoacridine antitumor compounds” value (human tumor cell lines) read?
**A.** The value was “lower than those of tested known 9-anilinoacridine antitumor compounds”.

**Q.** With Cc1ccc(Nc2c3cccc(C)c3nc3c(C(=O)NCCN(C)C)cccc23)cc1N (as salt: HCl) [Compound 3, 5-[9-(4-dimethylaminoethylcarboxamido-5-methyl)acridinylamino)-p-toluidine hydrochloride] as the molecule, how does the melting point read?
**A.** The melting point was 245 to 246 °C.

**Q.** Which melting point does the source give for Cc1cc(N)cc(Nc2c3ccccc3nc3ccccc23)c1 (as salt: HCl) [Compound 10, 5-(9-acridinylamino)-m-toluidine] here?
**A.** Its melting point is > 280 °C (dec.).

**Q.** What does the source list for Cc1cc(N)cc(Nc2c3cccc(C)c3nc3c(C(=O)NCCN(C)C)cccc23)c1 [Compound 1, 5-[9-(4-dimethylaminoethylcarboxamido-5-methyl)acridinylamino]-m-toluidine hydrochloride]?
**A.** IC50 values compared with tested known 9-anilinoacridine antitumor compounds (human tumor cell lines): lower than those of tested known 9-anilinoacridine antitumor compounds; IC50 values compared with tested known 9-anilinoacridine compounds [1]: lower than tested known 9-anilinoacridine compounds; cross-resistance with vinblastine or taxol [1]: not cross-resistant; reducing tumor volume [2]: about 80%; toxicity to the host [2]: very low toxicity

**Q.** Which results are given for CCOC(=O)Nc1cc(Nc2c3cccc(C)c3nc3c(C(=O)NCCN(C)C)cccc23)ccc1C [Compound 6]?
**A.** IC50 values compared with tested known 9-anilinoacridine antitumor compounds (human tumor cell lines): lower than those of tested known 9-anilinoacridine antitumor compounds; melting point: 131 to 132 °C

**Q.** For Cc1ccc(Nc2c3cccc(C)c3nc3c(C(=O)NCCN(C)C)cccc23)cc1N [Compound 3, 5-[9-(4-dimethylaminoethylcarboxamido-5-methyl)acridinylamino)-p-toluidine hydrochloride], which “IC50 values compared with tested known 9-anilinoacridine antitumor compounds” value (human tumor cell lines) is on record?
**A.** Its value is “lower than those of tested known 9-anilinoacridine antitumor compounds”.

**Q.** Which results are given for Cc1ccc(N)cc1Nc1c2cccc(C)c2nc2c(C(=O)NCCN(C)C)cccc12 [Compound 2, 3-[9-(4-dimethylaminoethylcarboxamido-5-methyl)acridinylamino)-p-toluidine hydrochloride]?
**A.** largest difference in IC50 versus one of the tested known compounds (human tumor cell lines): 18 fold; IC50 values compared with tested known 9-anilinoacridine antitumor compounds (human tumor cell lines): lower than those of tested known 9-anilinoacridine antitumor compounds; IC50 values compared with tested known 9-anilinoacridine compounds [1]: lower than tested known 9-anilinoacridine compounds; cross-resistance with vinblastine or taxol [1]: not cross-resistant; reducing tumor volume [2]: about 80%; toxicity to the host [2]: very low toxicity

Source: patent US6821983B2, “5-(9-acridinylamino)-toluidine compounds” (Academia Sinica, priority 2003, dated 2004)
